pIC50: −log10 of the molar value. Converted amounts (≈) assume the structure as drawn. Like-named read-outs stand apart in the source and are kept apart here.
How the values were obtained:
FabI = FabI assay, enzyme source not stated; type: biochemical
Procedure: (§1) FabI catalyses the reduction of enoyl-ACPs with the concommitant oxidation of NAD(P)H. Crotonoyl-ACP can be prepared as described in patent applications numbered PCT/US00/12104 and EP1997000306506. The reduction of enoyl-ACPs can be monitored by following the change in absorbance at 340 nm as NADH is oxidised. Enoyl ACPs (eg crotonoyl-ACP) can be replaced by enoyl-CoAs (eg crotonoyl-CoA)
(§2) Assays were carried out in Costar 3696 half-area plates in a final assay volume of 150 ul on a Spectramax platereader. Substrates, NADH and crotonoyl ACP, were incubated with FabI enzyme in 100 mM N-[2-acetamido]-2 iminodiacetic acid (ADA), pH 6.5, 4% glycerol at 30° C. and the reaction monitored at 340 nm. This assaying can also be performed using crotonyl CoA, NADPH or an NADH analogue as a substrate, or using a substrate suitable for FabK, such as those described above.
(§3) Using the above assay, compounds can be tested for inhibition of FabI. 30 ul of a candidate compounds is added to a well of the plate. 30 ul of a 250 uM stock of NADH is then added to the well. 60 ul of a 67.5 uM stock of Crotonoyl ACP is added to the well. The plate is incubated at 30° C. for 5 min. 30 ul of a 6.25 nM stock of enzyme is then added to the well (also preincubated at 30° C.) to initiate the reaction. The plate is then monitored at A340 nm for 30 min at 30° C. Positive controls are reactions without compound. […]

S. pneumoniae FabK = molecular target: T1, S. pneumoniae FabK (Streptococcus pneumoniae, UniProt Q9FBC5, T318A); experiment: FabK enoyl-ACP reductase assay (NADH oxidation at 340 nm); type: biochemical; settings: for inhibition of FabK (in words): 25 uM crotonoyl ACP, 50 uM NADH, 1.25 nM enzyme
T1 construct: made in house
T1 sequence (Q9FBC5 whole entry T318A): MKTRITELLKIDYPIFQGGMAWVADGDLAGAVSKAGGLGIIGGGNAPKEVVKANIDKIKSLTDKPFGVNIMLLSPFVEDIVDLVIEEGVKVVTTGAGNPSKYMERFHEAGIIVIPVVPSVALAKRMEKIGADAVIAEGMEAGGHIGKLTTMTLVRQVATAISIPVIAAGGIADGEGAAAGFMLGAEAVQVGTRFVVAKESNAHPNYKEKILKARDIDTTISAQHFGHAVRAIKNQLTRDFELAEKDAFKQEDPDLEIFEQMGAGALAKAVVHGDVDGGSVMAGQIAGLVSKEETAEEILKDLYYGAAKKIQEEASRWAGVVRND
Procedure: FabK catalyses the reduction of enoyl-ACPs with the concommitant oxidation of NADH. Crotonoyl-ACP can be prepared as described below. The reduction of crotonoyl-ACP to butyryl-ACP can be monitored by following the change in absorbance at 340 nm as NADH is oxidised.
as §2, with “FabK” for “FabI”, “irminodiacetic” for “iminodiacetic”, “6.5, 100 mM NH4Cl,” for “6.5,”, “substrate.” for “substrate, or using a substrate suitable for FabK, such as those described above.”
Using the above assay, compounds can be tested for inhibition of FabK. 30 ul of a candidate compounds is added to a well of the plate. 30 ul of a 250 uM stock of NADH is then added to the well. 60 ul of a 67.5 uM stock of Crotonoyl ACP is added to the well. The plate is incubated at 30° C. for 5 min. 30 ul of a 6.25 nM stock of enzyme is then added to the well (also preincubated at 30° C.) to initiate the reaction. The plate is then monitored at A340 nm for 30 min at 30° C. Positive controls are reactions without compound. Negative controls are reactions without enzyme and without compound. Final concentrations in the assay mixture are 25 uM crotonoyl ACP, 50 uM NADH, 1.25 nM enzyme.

S. pneumoniae ERY2 = experiment: Antibacterial MIC; type: cell-based; settings: Streptococcus pneumoniae, ERY2, read-out: Antibacterial MIC
S. pneumoniae N1387 = experiment: Antibacterial MIC; type: cell-based; settings: Streptococcus pneumoniae
E. faecalis 1 = experiment: Antibacterial MIC; type: cell-based; settings: Enterococcus faecalis, 1, read-out: Antibacterial MIC
E. coli AcrAB^− = experiment: Antibacterial MIC; type: cell-based; settings: Escherichia coli, read-out: Antibacterial MIC
S. aureus Oxford = experiment: Antibacterial MIC; type: cell-based; settings: Staphylococcus aureus, read-out: Antibacterial MIC
E. coli FabI = E. coli FabI (Escherichia coli, UniProt P0AEK4); experiment: FabI assay, E. coli enzyme; type: biochemical
Chain of E. coli FabI (P0AEK4 whole entry): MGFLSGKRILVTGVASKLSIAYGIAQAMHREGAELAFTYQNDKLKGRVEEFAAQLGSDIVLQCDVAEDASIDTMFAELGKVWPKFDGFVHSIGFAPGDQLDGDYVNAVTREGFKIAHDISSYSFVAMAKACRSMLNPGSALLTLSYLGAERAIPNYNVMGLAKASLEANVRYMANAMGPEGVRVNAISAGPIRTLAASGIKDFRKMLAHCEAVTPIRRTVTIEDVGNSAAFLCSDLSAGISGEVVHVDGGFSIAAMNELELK
Procedure: as §1, §2, §3

S. aureus FabI = S. aureus FabI (Staphylococcus aureus, UniProt Q6GI75); experiment: FabI assay, S. aureus enzyme; type: biochemical
Chain of S. aureus FabI (Q6GI75 whole entry): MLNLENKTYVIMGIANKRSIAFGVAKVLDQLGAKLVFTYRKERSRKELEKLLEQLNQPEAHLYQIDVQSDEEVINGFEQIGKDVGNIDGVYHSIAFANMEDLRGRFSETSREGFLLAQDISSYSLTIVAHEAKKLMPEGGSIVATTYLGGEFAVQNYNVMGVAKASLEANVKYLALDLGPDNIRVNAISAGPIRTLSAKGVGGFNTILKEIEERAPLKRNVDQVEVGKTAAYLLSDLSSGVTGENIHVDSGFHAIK
Procedure: as §1, §2, §3

E. faecalis 7 = experiment: Antibacterial MIC; type: cell-based
H. influenzae Q1 = experiment: Antibacterial MIC; type: cell-based; settings: Haemophilus influenzae
S. pneumoniae 1629 = experiment: Antibacterial MIC; type: cell-based
M. catarrhalis = experiment: Antibacterial MIC; type: cell-based; settings: Moraxella catarrhalis, read-out: Antibacterial MIC
S. aureus WCUH29 = experiment: Antibacterial MIC; type: cell-based; settings: Staphylococcus aureus
H. influenzae NEMC1 = experiment: Antibacterial MIC; type: cell-based; settings: Haemophilus influenzae

Cc1[nH]c2ccccc2c1CN(C)C(=O)/C=C/c1cnc2c(c1)CCC(=O)N2 [Formula II]
inhibition of FabI (in words) (FabI): inhibit
inhibition of FabK (in words) (S. pneumoniae FabK): inhibit

CN(Cc1cn(C)c2ccccc12)C(=O)/C=C/c1cnc2c(c1)CCC(=O)N2 [Formula I]
inhibition of FabI (in words) (FabI): inhibit
inhibition of FabK (in words) (S. pneumoniae FabK): inhibit

Cl.N [NH4^+]
activation of FabK reaction over the reaction with no monovalent cations (S. pneumoniae FabK; NH4^+ at 100 mM): about 300 fold

CN(Cc1cn(C)c2ccccc12)C(=O)/C=C/c1cnc2c(c1)CCC(=O)N2 [SB-611113]
MIC (S. pneumoniae ERY2): 8 µg/mL (≈ 21.4 µM)
MIC (S. pneumoniae N1387; N1387, read-out: Antibacterial MIC): 16 µg/mL (≈ 42.7 µM)
MIC (E. faecalis 1): 16 µg/mL (≈ 42.7 µM)
MIC (E. coli AcrAB^−): 8 µg/mL (≈ 21.4 µM)
MIC (S. aureus Oxford): ≤ 0.06 µg/mL
IC50 (E. coli FabI): < 0.06 µM
IC50 (S. aureus FabI): 0.1 µM
MIC (E. faecalis 7; Enterococcus faecalis, 7, read-out: Antibacterial MIC): 16 µg/mL (≈ 42.7 µM)
MIC (H. influenzae Q1; Q1, read-out: Antibacterial MIC): 16 µg/mL (≈ 42.7 µM)
MIC (S. pneumoniae 1629; Streptococcus pneumoniae, 1629, read-out: Antibacterial MIC): 8 µg/mL (≈ 21.4 µM)
pIC50 (S. pneumoniae FabK): 5.24
MIC (M. catarrhalis): ≤ 0.06 µg/mL
MIC (S. aureus WCUH29; WCUH29, read-out: Antibacterial MIC): ≤ 0.06 µg/mL
MIC (H. influenzae NEMC1; NEMC1, read-out: Antibacterial MIC): 32 µg/mL (≈ 85.5 µM)

Cc1[nH]c2ccccc2c1CN(C)C(=O)/C=C/c1cnc2c(c1)CCC(=O)N2 [SB-641197]
MIC (S. pneumoniae ERY2): 8 µg/mL (≈ 21.4 µM)
MIC (S. pneumoniae N1387; S. pneumoniae N1387, read-out: Antibacterial MIC): 16 µg/mL (≈ 42.7 µM)
MIC (E. faecalis 1): 16 µg/mL (≈ 42.7 µM)
MIC (E. coli AcrAB^−): 0.5 µg/mL (≈ 1.34 µM)
MIC (S. aureus Oxford): ≤ 0.06 µg/mL
MIC (E. faecalis 7; Enterococcus faecalis, E. faecalis 7, read-out: Antibacterial MIC): 16 µg/mL (≈ 42.7 µM)
MIC (H. influenzae Q1; H. influenzae Q1, read-out: Antibacterial MIC): 1 µg/mL (≈ 2.67 µM)
MIC (S. pneumoniae 1629; Streptococcus pneumoniae, S. pneumoniae 1629, read-out: Antibacterial MIC): 8 µg/mL (≈ 21.4 µM)
pIC50 (S. pneumoniae FabK): 5.28
MIC (M. catarrhalis; M. catarrhalis): ≤ 0.06 µg/mL
MIC (S. aureus WCUH29; S. aureus WCUH29, read-out: Antibacterial MIC): ≤ 0.06 µg/mL
MIC (H. influenzae NEMC1; H. influenzae NEMC1, read-out: Antibacterial MIC): 2 µg/mL (≈ 5.34 µM)

Reference: patent US7048926B2, “Methods of agonizing and antagonizing FabK” (priority 2000, dated 2006)
